# In US12612386B2, “Heteroaryl-triazole compounds as pesticides” (Bayer Aktiengesellschaft, priority 2020, dated 2026):
# What was measured:
# Assay type in all cases: in vivo
# [1] = test system: adult engorged female ticks (Rhipicephalus microplus); assay: Rhipicephalus (Boophilus) microplus injection test; conditions: 4 μg/animal, egg deposition after 7 days
# Procedure: Rhipicephalus (Boophilus) Microplus—Injection Test
# Solvent: dimethyl sulfoxide
# To produce a suitable preparation of active compound, 10 mg of active compound are dissolved in 0.5 mL solvent, and the concentrate is diluted with solvent to the desired concentration.
# Five adult engorged female ticks (Rhipicephalus microplus) are injected with 1 μL compound solution into the abdomen. The ticks are transferred into replica plates and incubated in a climate chamber.
# After 7 days egg deposition of fertile eggs is monitored. Eggs where fertility is not visible are stored in a climate chamber till hatching after about 42 days. An efficacy of 100% means all eggs are infertile; 0% means all eggs are fertile.
# [2] = test system: adult mosquitoes Aedes aegypti strain MONHEIM; assay: Aedes aegypti test (AEDSAE surface treatment & contact assay); conditions: 24 hours after contact, read-out: efficacy (mortality)
# Outline: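 Compound in acetone containing 2000 ppm rapeseed oil methyl ester applied to a glazed tile and dried; adult mosquitoes exposed on the treated surface for 30 minutes. Percent mortality scored 24 hours after contact (100% = all dead, 0% = none dead).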
# [3] = test system: larvae of the banded cucumber beetle (Diabrotica balteata); assay: Diabrotica balteata spray test; conditions: 168 h, 100 g/ha (=32 μg/well), after 7 days, read-out: efficacy (seedling growth)
# Outline: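 Efficacy is seedling survival after 7 days, where 0% means no seedlings grew and 100% means growth equal to untreated, uninfested controls. Wheat seedlings, germinated on agar for 1 day, were sprayed with the aqueous emulsifier dilution (acetone/DMF solvent) and then exposed to 10–20 banded cucumber beetle larvae.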
smiles,measurement,setting,value
"C[C@H](NC(=O)c1cc(Br)cc(OC(F)(F)F)c1)c1ncnn1-c1cc(C#N)ncn1 [I-1, 3-bromo-N-{(1S)-1-[1-(6-cyanopyrimidin-4-yl)-1H-1,2,4-triazol-5-yl]ethyl}-5-(trifluoromethoxy)benzamide]",efficacy (infertile eggs),[1],100%
same,mortality at 4 mg/m2,"[2]; surface concentration 4 mg/m^2, 30 min exposure",80 to 100%
same,mortality at 20 mg/m2,"[2]; surface concentration 20 mg/m^2, 30 min exposure",80 to 100%
same,"pest or weed control at 32 µg/disc, 100 g/ha",[3],80%
